Measurements published in patent publication US11052154B2, “Ras protein degradation inducing molecule and pharmaceutical composition” (Tokyo University of Science Foundation, priority 2016, dated 2021).

Legend:
wild-type K-Ras protein = target: T1, wild-type K-Ras protein (Homo sapiens, UniProt P01116); test: Degradation (knockdown) of wild-type K-Ras protein forcibly expressed in HeLa cells, FACS analysis; type: cell-based; conditions: FIG. 1
T1 construct: expressed in transfected cells; host or cells: HeLa
T1 sequence (P01116 1-188 isoform P01116-2): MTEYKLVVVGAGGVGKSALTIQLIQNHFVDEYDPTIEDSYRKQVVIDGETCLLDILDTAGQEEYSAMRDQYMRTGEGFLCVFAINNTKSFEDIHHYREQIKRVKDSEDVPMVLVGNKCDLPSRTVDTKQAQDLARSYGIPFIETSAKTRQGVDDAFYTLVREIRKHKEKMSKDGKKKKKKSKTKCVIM
Procedure: In Example 2, degradation (knockdown) of a wild-type K-Ras protein forcibly expressed in HeLa cells (human cervical cancer cells) through TUS-007 was evaluated by FACS analysis. […] The full-length cDNA clone (Accession No. AK292510) of a human K-ras gene was purchased from Independent Administrative Institution, the National Institute of Technology and Evaluation. PCR amplification was performed using KOD-Plus-Neo (TOYOBO CO., LTD) as a PCR enzyme. The plasmid was introduced into HeLa cells to transiently overexpress a wild-type K-Ras protein (specifically, a fusion protein of a wild-type K-Ras protein and GFP via a HA tag) or a DsRed protein for comparison in the […] (Wako Pure Chemical Industries, Ltd.) as a transfection reagent was used to introduce the plasmid into HeLa cells by a routine procedure. […] Culture was performed for 40 hours after introduction of the plasmid, and then TUS-007 was added to HeLa cells as follows. […] A BD FACSCantoTM II (BD Biosciences) was used for flow cytometry, and the expression levels of GFP and the DsRed protein in the cells were quantified. […] The GFP/DsRed ratio per cell was computed using an analysis software FlowJoTM (TOMY Digital Biology Co., Ltd.), and degradation (knockdown) of the wild-type K-Ras protein by TUS-007 was determined from a shift in a graph.

SOS1 protein = target: T2, SOS1 protein (Homo sapiens, UniProt Q07889); test: Amount of SOS1 protein in HeLa cells, Western blot analysis; type: cell-based; conditions: 48 hours after addition, vs control (DMSO), FIG. 5
T2 construct: endogenous in cells; host or cells: HeLa
T2 sequence (Q07889 1-1333): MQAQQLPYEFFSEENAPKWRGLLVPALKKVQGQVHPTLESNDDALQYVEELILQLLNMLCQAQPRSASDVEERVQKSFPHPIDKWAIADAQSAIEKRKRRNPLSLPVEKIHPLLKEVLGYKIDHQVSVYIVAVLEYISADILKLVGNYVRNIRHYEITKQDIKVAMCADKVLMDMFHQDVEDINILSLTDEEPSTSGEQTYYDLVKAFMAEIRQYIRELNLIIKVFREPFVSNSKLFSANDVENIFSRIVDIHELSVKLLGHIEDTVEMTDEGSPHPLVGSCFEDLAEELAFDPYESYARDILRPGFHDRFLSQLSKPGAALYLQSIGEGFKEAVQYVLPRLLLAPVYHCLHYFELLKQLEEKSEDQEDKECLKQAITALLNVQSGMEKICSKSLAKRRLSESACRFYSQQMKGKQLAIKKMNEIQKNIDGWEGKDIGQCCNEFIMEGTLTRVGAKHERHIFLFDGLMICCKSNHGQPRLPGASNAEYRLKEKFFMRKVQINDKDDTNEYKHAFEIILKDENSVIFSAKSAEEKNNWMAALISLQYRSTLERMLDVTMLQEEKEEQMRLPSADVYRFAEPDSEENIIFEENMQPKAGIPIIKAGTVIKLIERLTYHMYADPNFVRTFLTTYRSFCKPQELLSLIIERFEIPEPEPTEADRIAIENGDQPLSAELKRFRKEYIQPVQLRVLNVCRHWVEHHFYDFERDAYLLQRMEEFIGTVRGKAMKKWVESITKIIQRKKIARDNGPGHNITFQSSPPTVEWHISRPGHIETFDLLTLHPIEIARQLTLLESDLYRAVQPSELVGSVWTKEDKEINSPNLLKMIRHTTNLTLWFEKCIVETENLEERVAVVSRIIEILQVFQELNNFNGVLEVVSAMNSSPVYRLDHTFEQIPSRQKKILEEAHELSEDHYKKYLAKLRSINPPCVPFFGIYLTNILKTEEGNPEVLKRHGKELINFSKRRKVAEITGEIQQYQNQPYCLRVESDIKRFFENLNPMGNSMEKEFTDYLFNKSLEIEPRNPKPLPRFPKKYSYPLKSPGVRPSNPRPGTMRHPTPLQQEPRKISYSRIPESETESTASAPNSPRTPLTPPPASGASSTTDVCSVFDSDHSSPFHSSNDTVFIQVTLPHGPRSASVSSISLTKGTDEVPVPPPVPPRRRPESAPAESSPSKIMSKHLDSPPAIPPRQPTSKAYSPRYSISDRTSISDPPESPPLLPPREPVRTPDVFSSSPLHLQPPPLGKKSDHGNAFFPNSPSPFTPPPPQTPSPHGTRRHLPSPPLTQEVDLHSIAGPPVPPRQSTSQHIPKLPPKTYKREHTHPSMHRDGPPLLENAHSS

With `CCC(C)[C@H](NC(=O)CCCCCCNC(=O)[C@H](CC(C)C)NC(=O)CNC(=O)c1cc(Cl)ccc1Cl)C(=O)Nc1ccc2[nH]c(Cc3c[nH]c4ccccc34)nc2c1` (stereo in doubt) [TUS-007] the “degradation (knockdown) of the wild-type K-Ras protein (shift of GFP/DsRed ratio graph)” value (wild-type K-Ras protein; 24 hours after addition, vs control (DMSO)) was “degradation of the wild-type K-Ras protein was induced”, the “degradation of the wild-type K-Ras protein when both TUS-007 and MLN2238 were added” value (wild-type K-Ras protein; MLN2238 co-added, compared with TUS-007 alone) was “degradation of the wild-type K-Ras protein was inhibited” and the “amount of the SOS1 protein (Western blot)” value (SOS1 protein) was “the amount of the SOS1 protein was not reduced”.
